Laboratory results as given in US6589956B2, “Benzenesulphonamide compounds” (Les Laboratoires Servier, priority 2001, dated 2003).

Key:
[1] = tested on: platelets in human platelet-rich plasma (5-hydroxytryptamine-induced aggregation); assay: Platelet aggregation in man induced by 5-hydroxytryptamine; assay type: cell-based; conditions: human PRP, 5-hydroxytryptamine 10 μM in the presence of 0.3 μM adenosine diphosphate and 1 μM adrenalin, read-out: IC50, inhibition of platelet aggregation produced by 5-hydroxytryptamine
Method: (§1) Venous blood is obtained from human volunteers who have not taken aspirin for at least 14 days prior to the experiment. The blood is removed over sodium citrate (0.109 M) (1 vol. of citrate over 9 vol. of blood). Platelet-rich plasma (PRP) is obtained by centrifugation (20° C.) at 200 g for 10 minutes. The number of platelets is on average. 250000 PL/mm^3. The PRP is stored at room temperature until the test and is used within 2 hours of having been taken. The TXA2 agonist U46619 is used at a concentration of 1 μM and 5-hydroxytryptamine is used at a concentration of 10 μM, the latter in the presence of 0.3 μM adenosine diphosphate and 1 μM adrenalin.

[2] = tested on: platelets in human platelet-rich plasma (TXA2 agonist U46619-induced aggregation); assay: Platelet aggregation in man induced by the TXA2 agonist U46619; assay type: cell-based; conditions: human PRP, U46619 1 μM, read-out: IC50, inhibition of platelet aggregation induced by the TXA2 agonist
Method: as §1

O=C(O)CCn1cc(CCN2CCN(c3nsc4ccccc34)CC2)c2cc(CCNS(=O)(=O)c3ccc(Cl)cc3)ccc21 [Example 6, 3-[3-{2-[4-(1,2-Benzisothiazol-3-yl)-1-piperazinyl]ethyl}-5-(2-{[(4-chlorophenyl)sulphonyl]amino}ethyl)-1H-indol-1-yl]propanoic Acid]
IC50 [1]: 3000 nM
IC50 [2]: 1500 nM
